We go through eight cell lines from the supplement of paper PMC10307832.

Holding throughout (assay): relative viability (nuclei count vs DMSO), 5 days (fraction); higher = more cells survive
Compound in test [1]: COc1cc(Nc2ncc(F)c(Nc3ccc4c(n3)NC(=O)C(C)(C)O4)n2)cc(OC)c1OC [R406]
The essentials:
(§1)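 On vehicle-anchored 1536-well plates, lung cancer cell lines held overnight at 37 °C were pinned with five library-drug doses (not always all listed) spaced by √10. With no medium change over 5 days, they were then fixed, permeabilised and Hoechst-stained in one step and imaged at 4×. MetaXpress counted nuclei, and viability is the median across plates of treated-well over vehicle-well nuclei. Acceptance needed control CV below 25% and at least one doubling.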

Compound in test [2]: O=C(/C=C/c1cccnc1)NCCCCC1CCN(C(=O)c2ccccc2)CC1 [Daporinad]
In outline:
as §1

Compound in test [3]: COc1cc(Nc2ncc(F)c(Nc3ccc4c(n3)NC(=O)C(C)(C)O4)n2)cc(OC)c1OC [R406] + Cc1nc(NC(=O)N2CCC[C@H]2C(N)=O)sc1-c1ccnc(C(C)(C)C(F)(F)F)c1 [Alpelisib] (partner 2 µM)
In outline:
(§2)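 Nuclei were stained with Hoechst during a one-step fixation (final 0.05% Triton X-100, 1% formaldehyde, 1 ug/ml Hoechst) carried out 5 days after dosing, then counted on 4× images. The cells, lung cancer lines in 1536-well plates, had been dosed by pin tool the day after seeding with one drug alone or a fixed anchor-drug dose plus five library-drug doses (not always all listed) in √10 steps. Relative viability is the nuclei count in treated wells divided by that in vehicle wells, and each value is the median of duplicate plates.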

Compound in test [4]: O=C(/C=C/c1cccnc1)NCCCCC1CCN(C(=O)c2ccccc2)CC1 [Daporinad] + Nc1nc2[nH]cc(CCc3ccc(C(=O)N[C@@H](CCC(=O)O)C(=O)O)cc3)c2c(=O)[nH]1 [Pemetrexed] (partner 0.2 µM)
In outline:
as §2

For NCI-H2228, the relative viability in test [1] (0.08 µM) is 1.1; in test [1] (0.253 µM), 1.3; in test [1] (0.8 µM), 1.15; in test [1] (2.53 µM), 0.385; in test [1] (8 µM), 0.298; in test [2] (0.0005 µM) it was 0.925. In addition, the relative viability in test [2] (0.001581 µM) turned out to be 0.846; in test [2] (0.005 µM) it was 1.24; in test [2] (0.01581 µM), 0.973; in test [3] (first compound 0.08 µM) it was 0.702; in test [3] (first compound 0.253 µM), 0.735; in test [3] (first compound 0.8 µM), 0.9. The relative viability in test [3] (first compound 2.53 µM) was found to be 0.618; in test [3] (first compound 8 µM) it was 0.161; in test [4] (first compound 0.0005 µM), 0.342; in test [4] (first compound 0.001581 µM) it was 0.307; in test [4] (first compound 0.005 µM), 0.304; in test [4] (first compound 0.01581 µM) it was 0.406.
Turning to NCI-H1563, the relative viability in test [1] (0.08 µM) was 0.904; in test [1] (0.253 µM), 0.971; in test [1] (0.8 µM) it was 1.01; in test [1] (2.53 µM), 0.928; in test [1] (8 µM), 0.539; in test [2] (0.0005 µM), 1.07. Besides, the relative viability was 0.995 in test [2] (0.001581 µM); 0.983 in test [2] (0.005 µM); 0.904 in test [2] (0.01581 µM); 0.938 in test [3] (first compound 0.08 µM); 0.996 in test [3] (first compound 0.253 µM); 0.924 in test [3] (first compound 0.8 µM). Further, the relative viability in test [3] (first compound 2.53 µM) was found to be 0.682; in test [3] (first compound 8 µM), 0.634; in test [4] (first compound 0.0005 µM), 0.722; in test [4] (first compound 0.001581 µM) it was 0.655; in test [4] (first compound 0.005 µM), 0.873; in test [4] (first compound 0.01581 µM) it was 0.641.
EKVX: the relative viability in test [1] (0.08 µM) stood at 0.928; in test [1] (0.253 µM), 1.12; in test [1] (0.8 µM), 1.1; in test [1] (2.53 µM), 0.855; in test [1] (8 µM), 0.722; in test [2] (0.0005 µM) it was 0.933. Besides, the relative viability was found to be 0.95 in test [2] (0.001581 µM); 0.974 in test [2] (0.005 µM); 1.14 in test [2] (0.01581 µM); 0.928 in test [3] (first compound 0.08 µM); 0.992 in test [3] (first compound 0.253 µM); 1.06 in test [3] (first compound 0.8 µM). Besides, the relative viability in test [3] (first compound 2.53 µM) amounted to 0.77; in test [3] (first compound 8 µM) it was 0.635; in test [4] (first compound 0.0005 µM), 0.344; in test [4] (first compound 0.001581 µM), 0.468; in test [4] (first compound 0.005 µM) it was 0.389; in test [4] (first compound 0.01581 µM), 0.343.
Take HOP-62: the relative viability in test [1] (0.08 µM) amounted to 0.998; in test [1] (0.253 µM) it was 1.16; in test [1] (0.8 µM), 0.97; in test [1] (2.53 µM), 1.04; in test [1] (8 µM) it was 1.09; in test [2] (0.0005 µM), 0.94. Moreover, the relative viability in test [2] (0.001581 µM) was found to be 1.08; in test [2] (0.005 µM), 1.03; in test [2] (0.01581 µM), 0.491; in test [3] (first compound 0.08 µM) it was 0.779; in test [3] (first compound 0.253 µM), 1.04; in test [3] (first compound 0.8 µM) it was 0.886. In addition, the relative viability in test [3] (first compound 2.53 µM) is 1.09; in test [3] (first compound 8 µM), 0.913; in test [4] (first compound 0.0005 µM), 0.297; in test [4] (first compound 0.001581 µM), 0.32; in test [4] (first compound 0.005 µM) it was 0.284; in test [4] (first compound 0.01581 µM), 0.282.
As to NCI-H2126, the relative viability in test [1] (0.08 µM) was 1.05; in test [1] (0.253 µM), 1.04; in test [1] (0.8 µM), 1.07; in test [1] (2.53 µM), 0.918; in test [1] (8 µM), 0.849; in test [2] (0.0005 µM), 1.02. Also, the relative viability was 0.978 in test [2] (0.001581 µM); 1.03 in test [2] (0.005 µM); 1.09 in test [2] (0.01581 µM); 0.721 in test [3] (first compound 0.08 µM); 0.851 in test [3] (first compound 0.253 µM); 0.75 in test [3] (first compound 0.8 µM). For the same cell line, the relative viability in test [3] (first compound 2.53 µM) was determined as 0.723; in test [3] (first compound 8 µM), 0.625; in test [4] (first compound 0.0005 µM), 0.644; in test [4] (first compound 0.001581 µM), 0.68; in test [4] (first compound 0.005 µM), 0.694; in test [4] (first compound 0.01581 µM) it was 0.7.
In the case of NCI-H1944, the relative viability is 0.932 in test [1] (0.08 µM); 1.08 in test [1] (0.253 µM); 0.986 in test [1] (0.8 µM); 0.858 in test [1] (2.53 µM); 0.783 in test [1] (8 µM); 0.921 in test [2] (0.0005 µM). For the same cell line, the relative viability in test [2] (0.001581 µM) is 1.05; in test [2] (0.005 µM) it was 1.07; in test [2] (0.01581 µM), 1.02; in test [3] (first compound 0.08 µM), 0.758; in test [3] (first compound 0.253 µM), 0.84; in test [3] (first compound 0.8 µM), 0.757. The relative viability in test [3] (first compound 2.53 µM) amounted to 0.652; in test [3] (first compound 8 µM), 0.512; in test [4] (first compound 0.0005 µM), 0.607; in test [4] (first compound 0.001581 µM) it was 0.716; in test [4] (first compound 0.005 µM), 0.706; in test [4] (first compound 0.01581 µM), 0.577.
As for EPLC-272H, the relative viability in test [1] (0.08 µM) is 0.919; in test [1] (0.253 µM) it was 0.975; in test [1] (0.8 µM) it was 1.07; in test [1] (2.53 µM), 0.438; in test [1] (8 µM), 0.379; in test [2] (0.0005 µM), 0.856. Also, the relative viability in test [2] (0.001581 µM) stood at 1.04; in test [2] (0.005 µM), 1.06; in test [2] (0.01581 µM), 1.04; in test [3] (first compound 0.08 µM) it was 0.989; in test [3] (first compound 0.253 µM), 1.2; in test [3] (first compound 0.8 µM), 0.969. Further, the relative viability in test [3] (first compound 2.53 µM) stood at 0.607; in test [3] (first compound 8 µM) it was 0.567; in test [4] (first compound 0.0005 µM) it was 0.327; in test [4] (first compound 0.001581 µM) it was 0.339; in test [4] (first compound 0.005 µM) it was 0.312; in test [4] (first compound 0.01581 µM) it was 0.413.
With RERF-LC-KJ, the relative viability was found to be 0.98 in test [1] (0.08 µM); 1.06 in test [1] (0.253 µM); 1.06 in test [1] (0.8 µM); 0.781 in test [1] (2.53 µM); 0.827 in test [1] (8 µM); 0.923 in test [2] (0.0005 µM). Moreover, the relative viability in test [2] (0.001581 µM) is 1.04; in test [2] (0.005 µM) it was 1.07; in test [2] (0.01581 µM), 1.02; in test [3] (first compound 0.08 µM), 0.87; in test [3] (first compound 0.253 µM) it was 1.07; in test [3] (first compound 0.8 µM), 0.971. For the same cell line, the relative viability in test [3] (first compound 2.53 µM) came to 0.738; in test [3] (first compound 8 µM), 0.597; in test [4] (first compound 0.0005 µM) it was 0.465; in test [4] (first compound 0.001581 µM), 0.482; in test [4] (first compound 0.005 µM) it was 0.587; in test [4] (first compound 0.01581 µM), 0.568.
